Data taken from article PMC6544300, “Mechanism of the efflux transport of demethoxycurcumin-O-glucuronides in HeLa cells stably transfected with UDP-glucuronosyltransferase 1A1” (PLoS ONE, 2019).

Tests used:
UGT1A1 = biological target: T1, UGT1A1 (Homo sapiens, UniProt P22309); assay: Chemical inhibition of DMC-O-glucuronidation by UGT1A1 inhibitors in HeLa1A1 cell lysate; assay type: biochemical; parameters: expressed in transfected cells; host or cells: HeLa cells stably overexpressing UGT1A1 (HeLa1A1), used as cell lysate; details: DMC 4 μM, HeLa1A1 cell lysate 2.3 mg/mL
T1 sequence (P22309 26-533): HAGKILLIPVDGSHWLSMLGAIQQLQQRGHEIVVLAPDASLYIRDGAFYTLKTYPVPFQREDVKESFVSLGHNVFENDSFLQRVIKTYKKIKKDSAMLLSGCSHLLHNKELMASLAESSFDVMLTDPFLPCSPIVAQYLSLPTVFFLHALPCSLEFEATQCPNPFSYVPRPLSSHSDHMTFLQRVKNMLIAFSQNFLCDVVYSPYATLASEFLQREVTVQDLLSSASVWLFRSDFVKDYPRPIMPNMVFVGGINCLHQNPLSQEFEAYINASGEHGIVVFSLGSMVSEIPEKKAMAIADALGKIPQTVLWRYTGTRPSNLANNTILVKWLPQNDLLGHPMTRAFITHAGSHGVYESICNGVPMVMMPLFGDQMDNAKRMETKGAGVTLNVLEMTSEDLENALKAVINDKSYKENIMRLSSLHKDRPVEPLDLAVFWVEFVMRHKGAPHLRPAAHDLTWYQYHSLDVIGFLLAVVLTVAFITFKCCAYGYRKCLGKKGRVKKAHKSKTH
Description: The glucuronidation assay was performed as previously described. Briefly, alamethicin (22 μg/mL), D-saccharic-1,4-lactone (4.4 mM), MgCl2 (0.88 mM), UGT1A1 (1.0 mg/mL) or HeLa1A1 cell lysates (2.3 mg/mL) and DMC (0.5 to 40 μM) were mixed in a 50 mM Tris buffer (pH 7.4). After a preincubation at 37°C for 5 min, UDPGA (3.5 mM) was added to the incubation system, and the mixture was further incubated. After 30 min, the reactions were terminated by the addition of ice-cold acetonitrile (200 μL). The mixed samples were centrifuged at 13,800 x g for 10 min, and the supernatant was analyzed using UHPLC.
Analyses of chemical inhibition and activity correlations were performed as two additional independent assays to determine the roles of the UGT1A1 enzyme. In these studies, nilotinib (10 μM), glycyrrhetinic acid (20 μM) and protopanaxatriol (500 μM) were used as UGT1A1 inhibitors to investigate the metabolic activities of DMC (4 μM). The incubation conditions were the same as those used for the glucuronidation activity assays.

BCRP = biological target: T2, BCRP (Homo sapiens, UniProt Q9UNQ0); assay: shRNA-mediated BCRP knock-down, glucuronide excretion in HeLa1A1 cells; assay type: cell-based; parameters: BCRP, MRP1, MRP3, and MRP4 were detected in both wild-type HeLa and HeLa1A1 cells; endogenous in cells; host or cells: HeLa1A1 cells; details: BCRP silencing, DMC 4 μM; for reduction of efflux excretion rate: Fig 8C; for increase of intracellular level: Fig 8D; for decrease in fmet value: Fig 8E
T2 sequence (Q9UNQ0 1-655): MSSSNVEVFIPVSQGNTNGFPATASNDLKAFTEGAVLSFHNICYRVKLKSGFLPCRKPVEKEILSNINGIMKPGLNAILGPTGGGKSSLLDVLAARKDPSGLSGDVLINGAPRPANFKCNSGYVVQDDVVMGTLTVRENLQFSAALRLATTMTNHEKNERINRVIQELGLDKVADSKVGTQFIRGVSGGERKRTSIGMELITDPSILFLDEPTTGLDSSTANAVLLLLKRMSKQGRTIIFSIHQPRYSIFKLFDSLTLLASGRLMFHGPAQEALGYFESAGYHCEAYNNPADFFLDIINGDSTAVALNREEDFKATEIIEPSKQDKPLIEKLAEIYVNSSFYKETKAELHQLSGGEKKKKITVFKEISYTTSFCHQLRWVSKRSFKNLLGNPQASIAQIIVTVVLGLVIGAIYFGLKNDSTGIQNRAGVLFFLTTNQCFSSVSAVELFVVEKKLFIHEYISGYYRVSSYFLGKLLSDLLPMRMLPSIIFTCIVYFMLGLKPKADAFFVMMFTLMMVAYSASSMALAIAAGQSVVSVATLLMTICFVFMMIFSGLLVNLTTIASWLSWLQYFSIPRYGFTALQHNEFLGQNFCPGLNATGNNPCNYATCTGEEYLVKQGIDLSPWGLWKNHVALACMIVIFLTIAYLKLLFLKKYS
Description: (§1) Prior to the assays, HeLa1A1 cells were washed twice with prewarmed (37°C) Hank’s balanced salt solution (HBSS, pH = 7.4). Subsequently, HeLa1A1 cells were pretreated and incubated with DMC (2, 4 or 8 μM) and dissolved in 2 mL of HBSS. The sampling times were selected to ensure that the plots of the amount excreted versus time remained in the linear range. At each time point (0.5, 1.0, 1.5 and 2.0 h), 200 μL of incubation solutions were collected from each well, and an equal volume of loading media was used to replenish each well. Then, the collected samples were each mixed with 100 μL of ice-cold acetonitrile. The supernatants (8.0 μL) were subjected to an ultra high-performance liquid chromatography (UHPLC) analysis after centrifugation (10 min at 13,800 g).
(§2) Furthermore, the excretion rates of generated glucuronides were calculated using Eq (1). In addition, the fraction metabolized (fmet) value was defined as the fraction of the dose metabolized based on Eq (2). V represents the volume of the incubation medium, C represents the concentration of excreted glucuronides, and t represents the incubation time.
(§3) The shRNA plasmids targeting the efflux transporters BCRP, MRP1, MRP3 and MRP4 were constructed using previously described methods. HeLa1A1 cells were transiently transfected with the corresponding shRNA plasmids. The procedures for the establishment of HeLa1A1-BCRP-shRNA cells, HeLa1A1-MRP1-shRNA cells, HeLa1A1-MRP3-shRNA cells and HeLa1A1-MRP4-shRNA cells are detailed in our previous publication. Moreover, levels of the BCRP, MRP1, MRP3 and MRP4 proteins in these constructed HeLa1A1 cells were determined by western blotting assays, as described previously.

MRP3 = biological target: T3, MRP3 (Homo sapiens, UniProt O15438); assay: shRNA-mediated MRP3 knock-down, glucuronide excretion in HeLa1A1 cells; assay type: cell-based; details: DMC 4 μM; for decrease of fmet value: MRP3 partial knock-down, Fig 10E; for decrease in efflux excretion clearance / increase in intracellular level: MRP3 silencing; for decrease in efflux excretion clearance: Fig 10C; for increase in intracellular level: Fig 10D
T3 construct: BCRP, MRP1, MRP3, and MRP4 were detected in both wild-type HeLa and HeLa1A1 cells; endogenous in cells; host or cells: HeLa1A1 cells (MRP3-shRNA versus scrambled shRNA)
T3 sequence (O15438 whole entry): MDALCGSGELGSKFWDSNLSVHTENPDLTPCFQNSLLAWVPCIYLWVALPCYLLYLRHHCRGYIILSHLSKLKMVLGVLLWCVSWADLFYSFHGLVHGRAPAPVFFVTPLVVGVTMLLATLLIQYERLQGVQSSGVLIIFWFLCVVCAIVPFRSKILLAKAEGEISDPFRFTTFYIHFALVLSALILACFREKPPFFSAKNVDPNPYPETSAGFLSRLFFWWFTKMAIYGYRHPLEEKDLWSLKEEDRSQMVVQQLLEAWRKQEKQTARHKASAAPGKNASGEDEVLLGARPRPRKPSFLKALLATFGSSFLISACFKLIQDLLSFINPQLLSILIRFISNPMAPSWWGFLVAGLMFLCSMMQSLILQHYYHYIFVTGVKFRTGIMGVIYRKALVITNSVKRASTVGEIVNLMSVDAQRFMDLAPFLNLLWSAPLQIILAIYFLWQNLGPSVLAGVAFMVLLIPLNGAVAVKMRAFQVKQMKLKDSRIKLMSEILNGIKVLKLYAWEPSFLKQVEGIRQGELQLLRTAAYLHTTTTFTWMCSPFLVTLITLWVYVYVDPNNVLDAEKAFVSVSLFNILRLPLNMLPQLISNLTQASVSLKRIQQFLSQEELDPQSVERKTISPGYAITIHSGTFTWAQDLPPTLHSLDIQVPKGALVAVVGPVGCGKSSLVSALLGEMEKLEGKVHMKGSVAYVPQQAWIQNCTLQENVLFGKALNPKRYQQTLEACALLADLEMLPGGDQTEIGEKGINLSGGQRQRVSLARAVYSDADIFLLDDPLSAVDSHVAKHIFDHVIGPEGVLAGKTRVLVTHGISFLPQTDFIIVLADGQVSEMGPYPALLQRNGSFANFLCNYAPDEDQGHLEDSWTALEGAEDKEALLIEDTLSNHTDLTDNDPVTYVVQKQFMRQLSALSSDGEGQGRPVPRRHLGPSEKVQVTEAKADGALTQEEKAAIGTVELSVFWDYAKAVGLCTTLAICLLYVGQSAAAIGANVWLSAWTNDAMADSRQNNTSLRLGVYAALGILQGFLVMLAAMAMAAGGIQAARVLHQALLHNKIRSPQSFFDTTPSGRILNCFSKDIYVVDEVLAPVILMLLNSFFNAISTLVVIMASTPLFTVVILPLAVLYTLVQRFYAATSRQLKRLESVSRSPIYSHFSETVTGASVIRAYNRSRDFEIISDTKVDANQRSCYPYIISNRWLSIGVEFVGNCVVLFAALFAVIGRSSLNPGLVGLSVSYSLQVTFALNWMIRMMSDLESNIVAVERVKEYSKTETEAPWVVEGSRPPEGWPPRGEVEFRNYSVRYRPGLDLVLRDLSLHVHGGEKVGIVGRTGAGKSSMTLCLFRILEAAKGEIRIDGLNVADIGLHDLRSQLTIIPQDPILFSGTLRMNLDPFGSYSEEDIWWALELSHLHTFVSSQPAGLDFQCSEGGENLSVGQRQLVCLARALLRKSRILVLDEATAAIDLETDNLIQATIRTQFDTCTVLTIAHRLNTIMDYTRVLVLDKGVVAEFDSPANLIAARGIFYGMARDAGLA
Description: as §1, §2, §3

MRP1 = biological target: T4, MRP1 (Homo sapiens, UniProt P33527); assay: shRNA-mediated MRP1 knock-down, glucuronide excretion in HeLa1A1 cells; assay type: cell-based; details: DMC 4 μM; for decrease of efflux excretion rate / decrease of metabolized fraction: MRP1 knock-down; for decrease of efflux excretion rate: Fig 9C; for decrease of metabolized fraction: Fig 9E; for increase in intracellular level: MRP1 silencing, Fig 9D
T4 construct: BCRP, MRP1, MRP3, and MRP4 were detected in both wild-type HeLa and HeLa1A1 cells; endogenous in cells; host or cells: HeLa1A1 cells (MRP1-shRNA versus scrambled shRNA)
T4 sequence (P33527 whole entry): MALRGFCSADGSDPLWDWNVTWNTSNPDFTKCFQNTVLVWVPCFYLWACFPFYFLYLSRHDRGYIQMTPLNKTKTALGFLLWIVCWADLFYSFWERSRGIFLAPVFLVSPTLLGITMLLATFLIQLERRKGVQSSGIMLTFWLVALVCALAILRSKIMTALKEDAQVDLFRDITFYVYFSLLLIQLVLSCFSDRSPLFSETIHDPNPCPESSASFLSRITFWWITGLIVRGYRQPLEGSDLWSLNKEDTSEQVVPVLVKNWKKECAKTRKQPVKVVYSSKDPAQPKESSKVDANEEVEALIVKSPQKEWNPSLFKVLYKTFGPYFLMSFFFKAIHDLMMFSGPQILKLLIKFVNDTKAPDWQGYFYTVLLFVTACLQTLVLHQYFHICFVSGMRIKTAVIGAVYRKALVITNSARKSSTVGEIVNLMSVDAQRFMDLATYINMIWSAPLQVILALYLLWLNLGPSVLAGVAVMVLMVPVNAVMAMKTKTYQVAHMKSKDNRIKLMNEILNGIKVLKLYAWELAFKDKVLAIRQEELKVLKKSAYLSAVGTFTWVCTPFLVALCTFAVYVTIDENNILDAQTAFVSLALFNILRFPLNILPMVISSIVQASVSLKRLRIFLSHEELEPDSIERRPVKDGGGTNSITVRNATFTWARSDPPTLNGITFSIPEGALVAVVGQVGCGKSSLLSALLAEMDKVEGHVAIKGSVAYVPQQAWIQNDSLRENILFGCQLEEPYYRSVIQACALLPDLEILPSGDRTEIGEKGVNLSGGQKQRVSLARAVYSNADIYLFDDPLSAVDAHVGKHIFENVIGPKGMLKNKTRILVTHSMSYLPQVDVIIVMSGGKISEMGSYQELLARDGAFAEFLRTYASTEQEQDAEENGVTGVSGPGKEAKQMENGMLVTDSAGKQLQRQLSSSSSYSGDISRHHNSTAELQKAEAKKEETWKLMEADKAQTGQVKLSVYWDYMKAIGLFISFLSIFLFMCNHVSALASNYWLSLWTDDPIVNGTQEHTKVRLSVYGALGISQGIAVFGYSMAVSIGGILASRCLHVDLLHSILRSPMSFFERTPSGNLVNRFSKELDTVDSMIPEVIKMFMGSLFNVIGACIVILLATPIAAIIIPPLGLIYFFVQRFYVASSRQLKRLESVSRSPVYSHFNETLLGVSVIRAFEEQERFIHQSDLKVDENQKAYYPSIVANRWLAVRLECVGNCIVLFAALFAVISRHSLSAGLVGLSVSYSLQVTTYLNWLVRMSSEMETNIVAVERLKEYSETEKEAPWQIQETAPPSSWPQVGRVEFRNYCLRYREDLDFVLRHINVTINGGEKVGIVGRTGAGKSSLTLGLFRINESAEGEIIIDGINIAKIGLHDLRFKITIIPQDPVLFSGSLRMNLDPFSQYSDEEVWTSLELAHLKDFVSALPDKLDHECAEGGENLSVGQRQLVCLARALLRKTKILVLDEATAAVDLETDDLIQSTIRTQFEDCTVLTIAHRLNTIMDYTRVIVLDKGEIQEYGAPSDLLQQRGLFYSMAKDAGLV
Description: as §1, §2, §3

BCRP transporter = system: BCRP transporter; parameters: method as in PMID 12477054; details: cited from earlier work

SMILES	reduction of efflux excretion rate (BCRP)	increase of intracellular level (BCRP)	decrease in fmet value (BCRP)	decrease of fmet value (MRP3)	decrease in efflux excretion clearance (MRP3)	increase in intracellular level (MRP3)	decrease of efflux excretion rate (MRP1)	decrease of metabolized fraction (MRP1)	increase in intracellular level (MRP1)	other results
CC(C)=CCC[C@](C)(O)[C@H]1CC[C@]2(C)[C@@H]1[C@H](O)C[C@@H]1[C@@]3(C)CC[C@H](O)C(C)(C)[C@@H]3[C@@H](O)C[C@]12C [protopanaxatriol]	–	–	–	–	–	–	–	–	–	formation of G1 and G2 (UGT1A1; inhibitor 500 μM): significantly inhibited
Cc1cn(-c2cc(NC(=O)c3ccc(C)c(Nc4nccc(-c5cccnc5)n4)c3)cc(C(F)(F)F)c2)cn1 [Nilotinib, nilotinib]	–	–	–	–	–	–	–	–	–	formation of G1 and G2 (UGT1A1; inhibitor 10 μM): significantly inhibited
COc1cc(/C=C/C(=O)CC(=O)/C=C/c2ccc(O[C@@H]3O[C@H](C(=O)O)[C@@H](O)[C@H](O)[C@H]3O)cc2)ccc1O [G2]	33.0%	51.6%	24.5%	27.9%	26.4%	32.1%	36.9%	29.8%	36.1%	–
COc1ccc2c3c([nH]c2c1)[C@H](CC(C)C)N1C(=O)[C@H](CCC(=O)OC(C)(C)C)NC(=O)[C@@H]1C3 [Ko143]	–	–	–	–	–	–	–	–	–	IC50 (BCRP transporter): 23 nM
COc1cc(/C=C/C(=O)CC(=O)/C=C/c2ccc(O)cc2)ccc1O[C@@H]1O[C@H](C(=O)O)[C@@H](O)[C@H](O)[C@H]1O [G1]	29.9%	40.9%	20.1%	16.2%	19.7%	31.5%	20.8%	16.5%	33.1%	–
CC1(C)[C@@H](O)CC[C@]2(C)[C@H]3C(=O)C=C4[C@@H]5C[C@@](C)(C(=O)O)CC[C@]5(C)CC[C@@]4(C)[C@]3(C)CC[C@@H]12 [glycyrrhetinic acid]	–	–	–	–	–	–	–	–	–	formation of G1 and G2 (UGT1A1; inhibitor 20 μM): significantly inhibited
